Laboratory results as given in paper PMC10303200 (ACS Central Science, 2023).

Columns and labels:
Format in all cases: binding
[1] = target: T1, Sig7-Fc (Homo sapiens, UniProt Q9Y286); assay: COIN-CaR-nMS; parameters: Siglec 7-Fc (Sig7-Fc, residue 1–345, MW 150 kDa); His6 (C); made in house; host or cells: wild-type CHO cells
Target sequence in this assay (Q9Y286 19-345): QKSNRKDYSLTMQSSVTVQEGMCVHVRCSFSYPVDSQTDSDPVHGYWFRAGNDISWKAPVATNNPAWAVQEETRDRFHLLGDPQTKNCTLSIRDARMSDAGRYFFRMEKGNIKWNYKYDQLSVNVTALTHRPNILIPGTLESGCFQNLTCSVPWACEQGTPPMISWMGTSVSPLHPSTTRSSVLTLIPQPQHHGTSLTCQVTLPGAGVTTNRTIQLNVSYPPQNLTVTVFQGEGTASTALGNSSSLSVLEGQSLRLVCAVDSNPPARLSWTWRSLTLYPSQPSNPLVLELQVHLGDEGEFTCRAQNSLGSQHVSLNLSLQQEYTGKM

[2] = target: T2, GAL-7 (Homo sapiens, UniProt P47929); assay: Direct native ESI-MS of the GAL-7 homodimer with a mixture of ten glycans (G2, G5-G13), 200 mM ammonium acetate, pH 6.9.; details: SD, n = 8; read-out: Kd (nMS), Table S4
T2 construct: gene LGALS7; homodimer (monomer MW 14.94 kDa)
T2 sequence (P47929 whole entry): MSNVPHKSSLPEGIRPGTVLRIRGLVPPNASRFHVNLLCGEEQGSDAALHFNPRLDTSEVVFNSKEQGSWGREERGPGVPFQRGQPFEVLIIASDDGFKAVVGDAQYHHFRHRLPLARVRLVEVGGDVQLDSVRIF

[3] = target: T2, GAL-7; assay: COIN-nMS of the GAL-7 homodimer with a mixture of ten glycans (G2, G5-G13), 200 mM ammonium acetate, pH 6.9.; details: SD, n = 8; read-out: Kd (COIN-nMS), Table S4
[4] = target: T3, GAL-3C (Homo sapiens, UniProt P17931); assay: COIN-nMS with a mixture of ten glycans (G2, G5-G13), 200 mM ammonium acetate, pH 6.9.; parameters: gene LGALS3; C-terminal carbohydrate recognition domain fragment, residues 107-250; details: SD, n = 8; read-out: Kd (COIN-nMS), Table S3
T3 sequence (P17931 107-250): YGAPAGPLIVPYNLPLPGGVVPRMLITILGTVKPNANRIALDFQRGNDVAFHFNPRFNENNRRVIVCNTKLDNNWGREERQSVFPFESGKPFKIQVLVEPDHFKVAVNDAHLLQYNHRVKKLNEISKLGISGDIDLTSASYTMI

[5] = target: T3, GAL-3C; assay: Direct native ESI-MS with a mixture of ten glycans (G2, G5-G13), 200 mM ammonium acetate, pH 6.9.; parameters: gene LGALS3; C-terminal carbohydrate recognition domain fragment, residues 107-250; details: SD, n = 8; read-out: Kd (nMS), Table S3
[6] = target: T1, Sig7-Fc; assay: COIN-CaR-nMS with purified oligosaccharides listed beside the library glycans, 200 mM ammonium acetate, pH 6.9.; parameters: gene SIGLEC7; residues 1-345, human IgG1 Fc fusion and C-terminal His6, from CHO cells, MW 150 kDa
Target sequence in this assay (Q9Y286 1-345): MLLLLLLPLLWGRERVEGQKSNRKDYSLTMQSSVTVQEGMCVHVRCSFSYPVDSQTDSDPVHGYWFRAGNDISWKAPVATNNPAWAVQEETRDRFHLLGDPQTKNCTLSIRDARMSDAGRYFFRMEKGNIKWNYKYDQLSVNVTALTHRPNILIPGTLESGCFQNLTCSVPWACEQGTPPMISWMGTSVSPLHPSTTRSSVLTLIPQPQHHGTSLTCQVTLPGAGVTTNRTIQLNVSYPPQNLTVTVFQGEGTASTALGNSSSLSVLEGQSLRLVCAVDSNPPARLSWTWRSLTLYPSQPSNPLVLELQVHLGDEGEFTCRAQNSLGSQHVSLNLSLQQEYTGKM

[7] = N-glycan natural libraries and purified oligosaccharides, pH 6.9, read-out: Kd
[8] = SD; read-out: Kd, purified oligosaccharides in Tables S12, S13, S18, S19
[9] = read-out: Kd, purified oligosaccharides in Tables S12, S13, S18, S19; SD

CC(=O)N[C@H]1[C@H](O[C@@H]2[C@H](O[C@]3(C(=O)O)C[C@H](O)[C@@H](NC(C)=O)[C@H]([C@H](O)[C@@H](CO)O[C@]4(C(=O)O)C[C@H](O)[C@@H](NC(C)=O)[C@H]([C@H](O)[C@H](O)CO)O4)O3)[C@@H](O)[C@H](O[C@H]3[C@H](O)[C@@H](O)C(O)O[C@@H]3CO)O[C@@H]2CO)O[C@H](CO)[C@H](O)[C@@H]1O (stereo partly drawn) [Glycan G29, α-D-GalNAc(1→4)-[α-D-Neu5Ac-(2→8)-α-D-Neu5Ac-(2→3)]-β-D-Gal-(1→4)-D-Glc]
Kd ([1]; G21 1.0 μM and G29 30 μM, read-out: Kd (COIN-CaR-nMS), two ligands): 184 ± 5 µM
Kd ([1]; G21 5 μM and G29 30 μM, read-out: Kd (COIN-CaR-nMS), two ligands): 240 ± 2 µM
Kd ([1]; G21 10 μM and G29 30 μM, read-out: Kd (COIN-CaR-nMS), two ligands): 240 ± 10 µM

α-D-GalNAc(1→4)-[α-D-Neu5Ac-(2→3)]-β-D-Gal-(1→4)-D-Glc [Glycan G28]
Kd [1, 7]: 460 ± 117 µM

CC(=O)N[C@H]1[C@H](O[C@H]2[C@@H](O)[C@@H](CO)O[C@@H](O[C@H]3[C@H](O[C@@H]4O[C@@H](C)[C@@H](O)[C@@H](O)[C@@H]4O)[C@@H](O)C(O)O[C@@H]3CO)[C@@H]2O)O[C@H](CO)[C@@H](O)[C@@H]1O[C@@H]1O[C@H](CO)[C@H](O)[C@H](O)[C@H]1O (stereo partly drawn) [G6, β-D-Gal(1→3)-β-D-GlcNAc(1→3)-β-D-Gal(1→4)-[α-L-Fuc(1→3)]-β-D-Glc]
Kd [2]: 232 µM
Kd [3]: 278 µM
Kd [4]: 101 µM
Kd [5]: 26.8 µM

CC(=O)N[C@H]1[C@@H](O[C@H]2[C@@H](O)[C@@H](CO)O[C@@H](O[C@H]3[C@H](O)[C@@H](CO)O[C@@H](O[C@H]4[C@@H](O)[C@@H](CO)O[C@@H](O[C@H]5[C@H](O)[C@@H](O)C(O)O[C@@H]5CO)[C@@H]4O)[C@@H]3NC(C)=O)[C@@H]2O[C@@H]2O[C@@H](C)[C@@H](O)[C@@H](O)[C@@H]2O)O[C@H](CO)[C@H](O)[C@@H]1O (stereo partly drawn) [G13, α-D-GalNAc-(1→3)-[α-L-Fuc-(1→2)]-β-D-Gal-(1→3)-β-D-GlcNAc-(1→3)-β-D-Gal-(1→4)-β-D-Glc]
Kd [2]: 261 µM
Kd [3]: 261 µM
Kd [4]: 2.4 µM
Kd [5]: 4.6 µM

β-D-Gal(1→3)-α-D-GalNAc(1→4)-[α-D-Neu5Ac-(2→8)-α-D-Neu5Ac-(2→8)-α-D-Neu5Ac-(2→3)]-β-D-Gal-(1→4)-D-Glc [Glycan G33]
Kd ([1]; N-glycan natural libraries and purified oligosaccharides, pH 6.9, listed as GT1c): weak or no binding

CC(=O)N[C@H]1[C@H](O[C@H]2[C@@H](O)[C@@H](CO)O[C@@H](O[C@H]3[C@H](O)[C@@H](O)C(O)O[C@@H]3CO)[C@@H]2O)O[C@H](CO)[C@@H](O[C@@H]2O[C@H](CO)[C@H](O)[C@H](O)[C@H]2O)[C@@H]1O (stereo partly drawn) [G9, β-D-Gal-(1→4)-β-D-GlcNAc-(1→3)-β-D-Gal-(1→4)-β-D-Glc]
Kd [2]: 348 µM
Kd [3]: 439 µM
Kd [4]: 12.9 µM
Kd [5]: 23.2 µM

CC(=O)N[C@H]1[C@H](O[C@@H]2[C@H](O[C@]3(C(=O)O)C[C@H](O)[C@@H](NC(C)=O)[C@H]([C@H](O)[C@@H](CO)O[C@]4(C(=O)O)C[C@H](O)[C@@H](NC(C)=O)[C@H]([C@H](O)[C@H](O)CO)O4)O3)[C@@H](O)[C@H](O[C@H]3[C@H](O)[C@@H](O)C(O)O[C@@H]3CO)O[C@@H]2CO)O[C@H](CO)[C@H](O)[C@@H]1O[C@@H]1O[C@H](CO)[C@H](O)[C@H](O)[C@H]1O (stereo partly drawn) [GD1b, GD1b oligosaccharide, β-D-Gal(1→3)-α-D-GalNAc(1→4)-[α-D-Neu5Ac-(2→8)-α-D-Neu5Ac-(2→3)]-β-D-Gal-(1→4)-D-Glc]
Kd [6, 8]: 1220 µM

CC(=O)N[C@H]1[C@H]([C@H](O)[C@H](O)CO)O[C@@](O[C@H](CO)[C@@H](O)[C@@H]2O[C@@](O[C@H]3[C@@H](O)[C@@H](CO)O[C@@H](O[C@H]4[C@H](O)[C@@H](O)C(O)O[C@@H]4CO)[C@@H]3O)(C(=O)O)C[C@H](O)[C@H]2NC(C)=O)(C(=O)O)C[C@@H]1O (stereo partly drawn) [GD3, GD3 oligosaccharide, α-D-Neu5Ac-(2→8)-α-D-Neu5Ac-(2→3)-β-D-Gal-(1→4)-D-Glc]
Kd [6, 8]: 97 µM

CC(=O)N[C@H]1[C@H](O[C@H]2[C@@H](O)[C@@H](CO)O[C@@H](O[C@H]3[C@H](O)[C@@H](NC(C)=O)[C@H](O[C@H]4[C@@H](O)[C@@H](CO)O[C@@H](O[C@H]5[C@H](O)[C@@H](O)C(O)O[C@@H]5CO)[C@@H]4O)O[C@@H]3CO)[C@@H]2O)O[C@H](CO)[C@@H](O[C@@H]2O[C@H](CO)[C@H](O)[C@H](O)[C@H]2O)[C@@H]1O (stereo partly drawn) [G7, β-D-Gal-(1→4)-β-D-GlcNAc(1→3)-β-D-Gal(1→4)-β-D-GlcNAc(1→3)-β-D-Gal(1→4)-β-D-Glc]
Kd [2]: 348 µM
Kd [3]: 362 µM
Kd [4]: 2.9 µM
Kd [5]: 5 µM

CC(=O)NC1C(O)CC(OC(CO)C(O)C2OC(OC(CO)C(O)C3OC(OC4C(O)C(CO)OC(OC5C(CO)OC(O)C(O)C5O)C4O)(C(=O)O)CC(O)C3NC(C)=O)(C(=O)O)CC(O)C2NC(C)=O)(C(=O)O)OC1C(O)C(O)CO [GT3, GT3 oligosaccharide, α-D-Neu5Ac-(2→8)-α-D-Neu5Ac-(2→8)-α-D-Neu5Ac-(2→3)-β-D-Gal-(1→4)-D-Glc]
Kd ([6]; SD): 184 µM

CC(=O)NC1C(OC2C(CO)OC(OC3C(CO)OC(O)C(O)C3O)C(O)C2OC2(C(=O)O)CC(O)C(NC(C)=O)C(C(O)C(O)CO)O2)OC(CO)C(O)C1O [GM2, GM2 oligosaccharide, α-D-GalNAc(1→4)-[α-D-Neu5Ac-(2→3)]-β-D-Gal-(1→4)-D-Glc]
Kd [6, 9]: 460 µM

CC(=O)NC1C(OC2C(CO)OC(OC3C(CO)OC(O)C(O)C3O)C(O)C2OC2(C(=O)O)CC(O)C(NC(C)=O)C(C(O)C(CO)OC3(C(=O)O)CC(O)C(NC(C)=O)C(C(O)C(CO)OC4(C(=O)O)CC(O)C(NC(C)=O)C(C(O)C(O)CO)O4)O3)O2)OC(CO)C(O)C1O [GT2, GT2 oligosaccharide, α-D-GalNAc(1→4)-[α-D-Neu5Ac-(2→8)-α-D-Neu5Ac-(2→8)-α-D-Neu5Ac-(2→3)]-β-D-Gal-(1→4)-D-Glc]
Kd [6, 9]: 235 µM

CC(=O)N[C@H]1[C@H](O[C@@H]2[C@H](O[C@]3(C(=O)O)C[C@H](O)[C@@H](NC(C)=O)[C@H]([C@H](O)[C@H](O)CO)O3)[C@@H](O)[C@H](O[C@H]3[C@H](O)[C@@H](O)C(O)O[C@@H]3CO)O[C@@H]2CO)O[C@H](CO)[C@H](O)[C@@H]1O[C@@H]1O[C@H](CO)[C@H](O)[C@H](O)[C@H]1O (stereo partly drawn) [GM1, GM1 oligosaccharide, β-D-Gal(1→3)-α-D-GalNAc(1→4)-[α-D-Neu5Ac-(2→3)]-β-D-Gal-(1→4)-D-Glc]
Kd [6, 8]: 437 µM

CC(=O)N[C@H]1[C@H](O[C@H]2[C@@H](O)[C@@H](CO)O[C@@H](O[C@H]3[C@H](O)[C@@H](NC(C)=O)[C@H](O[C@H]4[C@@H](O)[C@@H](CO)O[C@@H](O[C@H]5[C@H](O)[C@@H](NC(C)=O)[C@H](O[C@H]6[C@@H](O)[C@@H](CO)O[C@@H](O[C@H]7[C@H](O)[C@@H](O)C(O)O[C@@H]7CO)[C@@H]6O)O[C@@H]5CO)[C@@H]4O)O[C@@H]3CO)[C@@H]2O)O[C@H](CO)[C@@H](O[C@@H]2O[C@H](CO)[C@H](O)[C@H](O)[C@H]2O)[C@@H]1O (stereo partly drawn) [G8, β-D-Gal-(1→4)-β-D-GlcNAc-(1→3)-β-D-Gal-(1→4)-β-D-GlcNAc-(1→3)-β-D-Gal-(1→4)-β-D-GlcNAc-(1→3)-β-D-Gal-(1→4)-β-D-Glc]
Kd [2]: 178 µM
Kd [3]: 232 µM
Kd [4]: 5.8 µM
Kd [5]: 5.5 µM

CC(=O)N[C@H]1[C@H](O[C@@H]2[C@H](O[C@]3(C(=O)O)C[C@H](O)[C@@H](NC(C)=O)[C@H]([C@H](O)[C@@H](CO)O[C@]4(C(=O)O)C[C@H](O)[C@@H](NC(C)=O)[C@H]([C@H](O)[C@H](O)CO)O4)O3)[C@@H](O)[C@H](O[C@H]3[C@H](O)[C@@H](O)C(O)O[C@@H]3CO)O[C@@H]2CO)O[C@H](CO)[C@H](O)[C@@H]1O (stereo partly drawn) [G29, GD2 oligosaccharide, α-D-GalNAc(1→4)-[α-D-Neu5Ac-(2→8)-α-D-Neu5Ac-(2→3)]-β-D-Gal-(1→4)-D-Glc]
Kd [6, 8]: 205 µM

α-D-Neu5Ac-(2→8)-α-D-Neu5Ac-(2→8)-α-D-Neu5Ac-(2→3)-β-D-Gal-(1→4)-D-Glc [Glycan G27]
Kd [1, 7]: 184 ± 41 µM

CC(=O)N[C@H]1[C@@H](O[C@H]2[C@@H](O)[C@@H](CO)O[C@@H](O[C@H]3[C@H](O)[C@@H](O)C(O)O[C@@H]3CO)[C@@H]2O[C@@H]2O[C@@H](C)[C@@H](O)[C@@H](O)[C@@H]2O)O[C@H](CO)[C@H](O)[C@@H]1O (stereo partly drawn) [G12, α-D-GalNAc-(1→3)-[α-L-Fuc-(1→2)]-β-D-Gal-(1→4)-β-D-Glc]
Kd [2]: 184 µM
Kd [3]: 333 µM
Kd [4]: 10.4 µM
Kd [5]: 11.3 µM
